Measured values as given in US11053204B2, “Pyrimidinyloxy benzene derivatives as herbicides” (FMC Corporation, priority 2015, dated 2021).

Tests used:
Type in all cases: in vivo
[1] = test system: Italian ryegrass (Lolium multiflorum); assay: Test A postemergence, visual injury rating; conditions: 0 is no effect, 100 is complete control; for Ryegrass, Italian plant response rating: 0 to 100 scale, approximately 10 days; for Ryegrass, Italian plant response rating (0 to 100 scale): 500 g ai/ha
How it was run: (§1)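 Greenhouse pot test, loam/sand soil. Formulation: non-phytotoxic solvent mix plus surfactant. Pre: directed spray onto soil after sowing. Post: plants at 1–2 leaf, 2–10 cm. Rated visually vs untreated controls at ~10 d, 0 (no effect) to 100 (complete control).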

[2] = test system: barnyardgrass (Echinochloa crus-galli); assay: Test A postemergence, visual injury rating; conditions: 0 is no effect, 100 is complete control; for Barnyardgrass plant response rating: 0 to 100 scale, approximately 10 days; for Barnyardgrass plant response rating (0 to 100 scale): 500 g ai/ha
How it was run: as §1

[3] = test system: blackgrass (Alopecurus myosuroides); assay: Test A postemergence, visual injury rating; conditions: 0 is no effect, 100 is complete control; for Blackgrass plant response rating: 0 to 100 scale, approximately 10 days; for Blackgrass plant response rating (0 to 100 scale): 500 g ai/ha
How it was run: as §1

[4] = test system: corn (Zea mays); assay: Test A postemergence, visual injury rating; conditions: 0 is no effect, 100 is complete control; for Corn plant response rating: 0 to 100 scale, approximately 10 days; for Corn plant response rating (0 to 100 scale): 500 g ai/ha
How it was run: as §1

[5] = test system: galium (catchweed bedstraw, Galium aparine); assay: Test A postemergence, visual injury rating; conditions: 0 is no effect, 100 is complete control; for Galium plant response rating: 0 to 100 scale, approximately 10 days; for Galium plant response rating (0 to 100 scale): 500 g ai/ha
How it was run: as §1

[6] = test system: giant foxtail (Setaria faberii); assay: Test A postemergence, visual injury rating; conditions: 0 is no effect, 100 is complete control; for Foxtail, Giant plant response rating: 0 to 100 scale, approximately 10 days; for Foxtail, Giant plant response rating (0 to 100 scale): 500 g ai/ha
How it was run: as §1

[7] = test system: kochia (Kochia scoparia); assay: Test A postemergence, visual injury rating; conditions: 0 is no effect, 100 is complete control; for Kochia plant response rating: 0 to 100 scale, approximately 10 days; for Kochia plant response rating (0 to 100 scale): 500 g ai/ha
How it was run: as §1

[8] = test system: pigweed (Amaranthus retroflexus); assay: Test A postemergence, visual injury rating; conditions: 0 is no effect, 100 is complete control; for Pigweed plant response rating: 0 to 100 scale, approximately 10 days; for Pigweed plant response rating (0 to 100 scale): 500 g ai/ha
How it was run: as §1

[9] = test system: ragweed (common ragweed, Ambrosia elatior); assay: Test A postemergence, visual injury rating; conditions: 0 is no effect, 100 is complete control; for Ragweed plant response rating: 0 to 100 scale, approximately 10 days; for Ragweed plant response rating (0 to 100 scale): 500 g ai/ha
How it was run: as §1

[10] = test system: wheat (Triticum aestivum); assay: Test A postemergence, visual injury rating; conditions: 0 is no effect, 100 is complete control; for Wheat plant response rating: 0 to 100 scale, approximately 10 days; for Wheat plant response rating (0 to 100 scale): 500 g ai/ha
How it was run: as §1

[11] = test system: barnyardgrass (Echinochloa crus-galli); assay: Test B flooded paddy test, plant response rating; conditions: 250 g ai/ha, Flood, scale of 0 to 100 where 0 is no effect and 100 is complete control, 13 to 15 days
How it was run: (§2)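 Flooded 3 cm over soil; compound into paddy water; depth kept constant. Greenhouse 13–15 d.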

[12] = test system: ducksalad (Heteranthera limosa); assay: Test B flooded paddy test, plant response rating; conditions: 250 g ai/ha, Flood, scale of 0 to 100 where 0 is no effect and 100 is complete control, 13 to 15 days
How it was run: as §2

[13] = test system: rice (Oryza sativa); assay: Test B flooded paddy test, plant response rating; conditions: 250 g ai/ha, Flood, scale of 0 to 100 where 0 is no effect and 100 is complete control, 13 to 15 days
How it was run: as §2

[14] = test system: sedge, umbrella (small-flower umbrella sedge, Cyperus difformis); assay: Test B flooded paddy test, plant response rating; conditions: 250 g ai/ha, Flood, scale of 0 to 100 where 0 is no effect and 100 is complete control, 13 to 15 days
How it was run: as §2

[15] = test system: kochia (Kochia scoparia); assay: Test C preemergence, plant response rating
[16] = test system: johnsongrass (Sorghum halepense); assay: Test C postemergence, plant response rating; conditions: for Johnsongrass plant response rating: scale 0 to 100 (0 no effect, 100 complete control)
How it was run: (§3)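 Greenhouse plants rated visually against untreated controls 13–15 d after treatment, scale 0 = no effect to 100 = complete control. Postemergence sprays went onto potted plants 2–18 cm tall (1–4 leaves); preemergence sprays onto soil freshly sown in loam–sand or silt loam, chemicals formulated in non-phytotoxic solvent with surfactant.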

[17] = test system: surinam grass (Brachiaria decumbens); assay: Test C postemergence, plant response rating; conditions: for Surinam Grass plant response rating: 125 g ai/ha, scale 0 to 100 (0 no effect, 100 complete control)
How it was run: as §3

[18] = test system: wild poinsettia (Euphorbia heterophylla); assay: Test C postemergence, plant response rating; conditions: for Poinsettia, Wild plant response rating: scale 0 to 100 (0 no effect, 100 complete control)
How it was run: as §3

O=C(CCC(F)(F)F)c1c(Cl)cccc1Oc1ncc(Cl)cn1 [Compound 107, 1-[2-chloro-6-[(5-chloro-2-pyrimidinyl)oxy]phenyl]-4,4,4-trifluoro-1-butanone]
Ryegrass, Italian plant response rating ([1]; 31 g ai/ha): 20 | Ryegrass, Italian plant response rating ([1]; 125 g ai/ha): 80 | Barnyardgrass plant response rating ([2]; 31 g ai/ha): 40 | Barnyardgrass plant response rating ([2]; 125 g ai/ha): 90 | Blackgrass plant response rating ([3]; 31 g ai/ha): 50 | Blackgrass plant response rating ([3]; 125 g ai/ha): 90 | Corn plant response rating ([4]; 31 g ai/ha): 30 | Corn plant response rating ([4]; 125 g ai/ha): 60 | Galium plant response rating ([5]; 31 g ai/ha): 90 | Galium plant response rating ([5]; 125 g ai/ha): 90 | Foxtail, Giant plant response rating ([6]; 31 g ai/ha): 70 | Foxtail, Giant plant response rating ([6]; 125 g ai/ha): 90 | Kochia plant response rating ([7]; 31 g ai/ha): 90 | Kochia plant response rating ([7]; 125 g ai/ha): 90 | Pigweed plant response rating ([8]; 31 g ai/ha): 100 | Pigweed plant response rating ([8]; 125 g ai/ha): 100 | Ragweed plant response rating ([9]; 31 g ai/ha): 20 | Ragweed plant response rating ([9]; 125 g ai/ha): 30 | Wheat plant response rating ([10]; 31 g ai/ha): 0 | Wheat plant response rating ([10]; 125 g ai/ha): 30 | pest or weed control at 250 g/ha ([11]; Echinochloa crus-galli, 312 h): 50% | pest or weed control at 250 g/ha ([12]; Heteranthera limosa, 312 h): 95% | plant injury at 250 g/ha ([13]; Oryza sativa, 312 h): 35% | pest or weed control at 250 g/ha ([14]; Cyperus difformis, 312 h): 95% | Plant response rating, Kochia ([15]; 31 g ai/ha, scale 0 to 100): 100 | Plant response rating, Kochia ([15]; 62 g ai/ha, scale 0 to 100): 100 | Plant response rating, Kochia ([15]; 125 g ai/ha, scale of 0 to 100): 100 | Plant response rating, Johnsongrass ([16]; 16 g ai/ha, scale of 0 to 100): 20 | Plant response rating, Johnsongrass ([16]; 31 g ai/ha, scale 0 to 100): 10 | Johnsongrass plant response rating ([16]; 62 g ai/ha): 35 | Johnsongrass plant response rating ([16]; 125 g ai/ha): 98 | Plant response rating, Surinam Grass ([17]; 16 g ai/ha, scale of 0 to 100): 10 | Plant response rating, Surinam Grass ([17]; 31 g ai/ha, scale 0 to 100): 25 | Surinam Grass plant response rating [17]: 35 | Plant response rating, Poinsettia, Wild ([18]; 16 g ai/ha, scale of 0 to 100): 70 | Plant response rating, Poinsettia, Wild ([18]; 31 g ai/ha, scale 0 to 100): 75 | Poinsettia, Wild plant response rating ([18]; 62 g ai/ha): 90 | Poinsettia, Wild plant response rating ([18]; 125 g ai/ha): 90

O=C(CCCC(F)(F)F)c1c(Oc2ncc(Cl)cn2)cccc1C(F)(F)F [Compound 125]
Ryegrass, Italian plant response rating ([1]; 125 g ai/ha): 20 | Ryegrass, Italian plant response rating (0 to 100 scale) [1]: 90 | Barnyardgrass plant response rating ([2]; 125 g ai/ha): 30 | Barnyardgrass plant response rating (0 to 100 scale) [2]: 90 | Blackgrass plant response rating ([3]; 125 g ai/ha): 30 | Blackgrass plant response rating (0 to 100 scale) [3]: 90 | Corn plant response rating ([4]; 125 g ai/ha): 10 | Corn plant response rating (0 to 100 scale) [4]: 30 | Galium plant response rating ([5]; 125 g ai/ha): 100 | Galium plant response rating (0 to 100 scale) [5]: 100 | Foxtail, Giant plant response rating ([6]; 125 g ai/ha): 50 | Foxtail, Giant plant response rating (0 to 100 scale) [6]: 90 | Kochia plant response rating ([7]; 125 g ai/ha): 100 | Kochia plant response rating (0 to 100 scale) [7]: 100 | Pigweed plant response rating ([8]; 125 g ai/ha): 100 | Pigweed plant response rating (0 to 100 scale) [8]: 100 | Ragweed plant response rating ([9]; 125 g ai/ha): 30 | Ragweed plant response rating (0 to 100 scale) [9]: 40 | Wheat plant response rating ([10]; 125 g ai/ha): 20 | Wheat plant response rating (0 to 100 scale) [10]: 30 | Plant response rating, Barnyardgrass [11]: 45 | Plant response rating, Ducksalad [12]: 70 | Plant response rating, Rice [13]: 35 | Plant response rating, Sedge, Umbrella [14]: 90 | Plant response rating, Kochia ([15]; 31 g ai/ha, scale 0 to 100): 60 | Plant response rating, Kochia ([15]; 62 g ai/ha, scale 0 to 100): 90 | Plant response rating, Kochia ([15]; 125 g ai/ha, scale of 0 to 100): 98 | Plant response rating, Johnsongrass ([16]; 16 g ai/ha, scale of 0 to 100): 5 | Plant response rating, Johnsongrass ([16]; 31 g ai/ha, scale 0 to 100): 5 | Johnsongrass plant response rating ([16]; 62 g ai/ha): 10 | Johnsongrass plant response rating ([16]; 125 g ai/ha): 25 | Plant response rating, Surinam Grass ([17]; 16 g ai/ha, scale of 0 to 100): 5 | Plant response rating, Surinam Grass ([17]; 31 g ai/ha, scale 0 to 100): 10 | Surinam Grass plant response rating [17]: 20 | Plant response rating, Poinsettia, Wild ([18]; 16 g ai/ha, scale of 0 to 100): 65 | Plant response rating, Poinsettia, Wild ([18]; 31 g ai/ha, scale 0 to 100): 65 | Poinsettia, Wild plant response rating ([18]; 62 g ai/ha): 75 | Poinsettia, Wild plant response rating ([18]; 125 g ai/ha): 85

CCCCC(=O)c1c(Oc2ncc(Cl)cn2)cccc1C(F)(F)F [Compound 130]
Ryegrass, Italian plant response rating ([1]; 125 g ai/ha): 20 | Ryegrass, Italian plant response rating (0 to 100 scale) [1]: 90 | Barnyardgrass plant response rating ([2]; 125 g ai/ha): 90 | Barnyardgrass plant response rating (0 to 100 scale) [2]: 100 | Blackgrass plant response rating ([3]; 125 g ai/ha): 50 | Blackgrass plant response rating (0 to 100 scale) [3]: 90 | Corn plant response rating ([4]; 125 g ai/ha): 20 | Corn plant response rating (0 to 100 scale) [4]: 50 | Galium plant response rating ([5]; 125 g ai/ha): 100 | Galium plant response rating (0 to 100 scale) [5]: 100 | Foxtail, Giant plant response rating ([6]; 125 g ai/ha): 40 | Foxtail, Giant plant response rating (0 to 100 scale) [6]: 90 | Kochia plant response rating ([7]; 125 g ai/ha): 100 | Kochia plant response rating (0 to 100 scale) [7]: 100 | Pigweed plant response rating ([8]; 125 g ai/ha): 100 | Pigweed plant response rating (0 to 100 scale) [8]: 100 | Ragweed plant response rating ([9]; 125 g ai/ha): 30 | Ragweed plant response rating (0 to 100 scale) [9]: 60 | Wheat plant response rating ([10]; 125 g ai/ha): 30 | Wheat plant response rating (0 to 100 scale) [10]: 30 | Plant response rating, Barnyardgrass [11]: 55 | Plant response rating, Ducksalad [12]: 40 | Plant response rating, Rice [13]: 35 | Plant response rating, Sedge, Umbrella [14]: 98 | Plant response rating, Kochia ([15]; 31 g ai/ha, scale 0 to 100): 65 | Plant response rating, Kochia ([15]; 62 g ai/ha, scale 0 to 100): 65 | Plant response rating, Kochia ([15]; 125 g ai/ha, scale of 0 to 100): 98 | Plant response rating, Johnsongrass ([16]; 16 g ai/ha, scale of 0 to 100): 5 | Plant response rating, Johnsongrass ([16]; 31 g ai/ha, scale 0 to 100): 5 | Johnsongrass plant response rating ([16]; 62 g ai/ha): 10 | Johnsongrass plant response rating ([16]; 125 g ai/ha): 15 | Plant response rating, Surinam Grass ([17]; 16 g ai/ha, scale of 0 to 100): 10 | Plant response rating, Surinam Grass ([17]; 31 g ai/ha, scale 0 to 100): 10 | Surinam Grass plant response rating [17]: 20 | Plant response rating, Poinsettia, Wild ([18]; 16 g ai/ha, scale of 0 to 100): 55 | Plant response rating, Poinsettia, Wild ([18]; 31 g ai/ha, scale 0 to 100): 70 | Poinsettia, Wild plant response rating ([18]; 62 g ai/ha): 60 | Poinsettia, Wild plant response rating ([18]; 125 g ai/ha): 75
